Reference: patent US10639382B2, “Method for treating leukemia” (National Guard Health Affairs, priority 2017, dated 2020)
Where a name gives a salt, the structure may show the parent alone. Read-outs that look alike come from different tables or passages of the source.

Columns and labels:
Type in all cases: cell-based, human
PBMCs from CML patients = experiment: Primary screening of FDA approved drug library, TitreGlo/CellTiter-Glo cell viability, PBMCs from CML patients; conditions: Homo sapiens, PBMC, read-out: % Inhibition, CML Average
PBMCs from CLL patients = experiment: Primary screening of FDA approved drug library, TitreGlo/CellTiter-Glo cell viability, PBMCs from CLL patients; conditions: Homo sapiens, PBMC, read-out: % Inhibition, CLL Average
PBMCs from AML patients = experiment: Primary screening of FDA approved drug library, TitreGlo/CellTiter-Glo cell viability, PBMCs from AML patients; conditions: Homo sapiens, PBMC, read-out: % Inhibition, AML Average
PBMCs from ALL patients = experiment: Primary screening of FDA approved drug library, TitreGlo/CellTiter-Glo cell viability, PBMCs from ALL patients; conditions: Homo sapiens, PBMC, read-out: % Inhibition, ALL Average
[1] = compound 10 uM, PBMCs from CML patients, average over patients, relative to high control (0%) and no-cell low control (100%)
[2] = compound 10 uM, PBMCs from CLL patients, average over patients, relative to high control (0%) and no-cell low control (100%)
[3] = compound 10 uM, PBMCs from AML patients, average over patients, relative to high control (0%) and no-cell low control (100%)
[4] = compound 10 uM, PBMCs from ALL patients, average over patients, relative to high control (0%) and no-cell low control (100%)

SMILES | inhibition at 10 µM (PBMCs from CML patients; [1]) [%] | inhibition at 10 µM (PBMCs from CLL patients; [2]) [%] | inhibition at 10 µM (PBMCs from AML patients; [3]) [%] | inhibition at 10 µM (PBMCs from ALL patients; [4]) [%] | inhibition at 10 µM (PBMCs from CML patients) [%] | inhibition at 10 µM (PBMCs from CLL patients) [%] | inhibition at 10 µM (PBMCs from AML patients) [%] | inhibition at 10 µM (PBMCs from ALL patients) [%]
Nc1ccn([C@@H]2O[C@H](CO)[C@@H](O)[C@@H]2O)c(=O)n1 [Cytarabine] | 58.8 | 26.6 | 66.1 | 49.2 | – | – | – | –
COc1cccc2c1C(=O)c1c(O)c3c(c(O)c1C2=O)C[C@@](O)(C(C)=O)C[C@@H]3O[C@H]1C[C@H](N)[C@H](O)[C@H](C)O1 [Daunorubicin HCl] | 67.6 | 65.5 | 64 | 78.4 | – | – | – | –
CC(=O)[C@]1(O)Cc2c(O)c3c(c(O)c2[C@@H](O[C@H]2C[C@H](N)[C@H](O)[C@H](C)O2)C1)C(=O)c1ccccc1C3=O [Idarubicin HCl] | 43.5 | 54.8 | 79 | 73.5 | – | – | – | –
O=C(NCC1CCCCN1)c1cc(OCC(F)(F)F)ccc1OCC(F)(F)F (centres unmarked) [Flecainide Acetate] | -1 | 50.2 | 13 | -18.3 | – | – | – | –
N[C@@H](Cc1ccc(N(CCCl)CCCl)cc1)C(=O)O [Melphalan] | 32.5 | 69.6 | 42.1 | 92.9 | – | – | – | –
CCCCCCCCc1ccc(CCC(N)(CO)CO)cc1 [Fingolimod] | 76.1 | 47.9 | 81.5 | 58.9 | – | – | – | –
NC(N)=Nc1nc(CSCCC(N)=NS(N)(=O)=O)cs1 [Famotidine] | 17.1 | 39.2 | 5.3 | 13.4 | – | – | – | –
OC(c1cc(C(F)(F)F)nc2c(C(F)(F)F)cccc12)C1CCCCN1 (centres unmarked) [Mefloquine HCl] | 90.4 | 50.5 | 72.7 | 87.7 | – | – | – | –
CC(C)(C)NC[C@H](O)COc1cccc2c1CCCC2=O [Levobunolol HCl] | -32.1 | 49.6 | 1.8 | -8 | – | – | – | –
CCN(CC)CCNC(=O)c1c(C)[nH]c(/C=C2\C(=O)Nc3ccc(F)cc32)c1C [Sunitinib Malate] | 65.2 | 40.5 | 56.5 | 54.2 | – | – | – | –
[H]/N=C(\N/C(=N/[H])NCCCCCCNC(=N)NC(=N)Nc1ccc(Cl)cc1)Nc1ccc(Cl)cc1 [Chlorhexidine Dihydrochloride] | 59.9 | 70.3 | 26.9 | 53.6 | – | – | – | –
Oc1c(Cl)cc(Cl)c(Cl)c1Cc1c(O)c(Cl)cc(Cl)c1Cl [Hexachlorophene] | – | – | – | – | 26.3 | -13.5 | 35 | 23
COc1cccc2c1C(=O)c1c(O)c3c(c(O)c1C2=O)C[C@@](O)(C(=O)CO)C[C@@H]3O[C@H]1C[C@H](N)[C@@H](O)[C@H](C)O1 [Epirubicin HCl] | 5 | 64.3 | 67.1 | 74.4 | – | – | – | –
O=C1c2c(O)ccc(O)c2C(=O)c2c(NCCNCCO)ccc(NCCNCCO)c21 [Mitoxantrone HCl] | 72.6 | 71.1 | 68.8 | 73.7 | – | – | – | –
COc1cccc2c1C(=O)c1c(O)c3c(c(O)c1C2=O)C[C@@](O)(C(=O)CO)C[C@@H]3O[C@H]1C[C@H](N)[C@H](O)[C@H](C)O1 [Doxorubicin HCl] | 36.7 | 67.2 | 73.6 | 72.6 | – | – | – | –
C[C@@H](NCCCc1cccc(C(F)(F)F)c1)c1cccc2ccccc12 [Cinacalcet HCl] | 63.3 | 28.6 | 43.2 | 41.9 | – | – | – | –
Nc1nc(F)nc2c1ncn2[C@@H]1O[C@H](COP(=O)(O)O)[C@@H](O)[C@@H]1O [Fludarabine Phosphate] | 19.1 | 17.3 | 21.8 | 53.9 | – | – | – | –
CO[C@H]1/C=C/O[C@@]2(C)Oc3c(C)c(O)c4c(O)c(c(/C=N/N5CCN(C6CCCC6)CC5)c(O)c4c3C2=O)NC(=O)/C(C)=C\C=C\[C@H](C)[C@H](O)[C@@H](C)[C@@H](O)[C@@H](C)[C@H](OC(C)=O)[C@@H]1C [Rifapentine] | 76.5 | 12.3 | -3.2 | – | – | – | – | –
